Legend:
[1] = target: T1, Mouse urotensin (mUR2) (Mus musculus, UniProt Q8VIH9); experiment: Radioligand binding, mouse urotensin mUR2 membranes, FlashPlate, [125I]-Urotensin II; conditions: compound at 10 μM; [125I]-Urotensin II
T1 construct: purchased Perkin Elmer Biosignal
T1 sequence (Q8VIH9 1-385): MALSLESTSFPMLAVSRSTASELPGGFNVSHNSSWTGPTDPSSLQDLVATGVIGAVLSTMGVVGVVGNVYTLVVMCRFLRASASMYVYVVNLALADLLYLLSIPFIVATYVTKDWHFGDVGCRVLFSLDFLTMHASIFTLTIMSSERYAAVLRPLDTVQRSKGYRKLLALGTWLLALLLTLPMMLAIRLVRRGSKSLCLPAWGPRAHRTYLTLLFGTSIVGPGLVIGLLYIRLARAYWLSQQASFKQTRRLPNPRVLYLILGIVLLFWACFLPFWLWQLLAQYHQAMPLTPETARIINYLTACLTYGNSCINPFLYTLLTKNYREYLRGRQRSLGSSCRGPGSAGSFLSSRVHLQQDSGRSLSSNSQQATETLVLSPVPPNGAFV
Outline: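 Cloned mouse urotensin (mUR2) receptor membranes from Perkin Elmer Biosignal were immobilized in FlashPlate microplates using a proprietary coating. Each well got 19.5 μl buffer, then 0.5 μl of DMSO, reference ligand, or compound. Adding 5 μl of [125I]-Urotensin II, diluted to 5× final concentration in binding buffer, started binding. Plates were sealed with TopSeal-A and incubated 1 hour at room temperature in the dark. Wells were counted for 30 seconds each on a TopCount after a 60-second delay, and percentage inhibition was calculated.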

[2] = target: T2, Human melanocortin (MC5) (Homo sapiens, UniProt P33032); experiment: Radioligand binding, human melanocortin MC5 membranes, FlashPlate, [125I]-NDP-αMSH; conditions: compound at 10 μM, [125I]-NDP-αMSH
T2 construct: purchased Perkin Elmer Biosignal
T2 sequence (P33032 whole entry): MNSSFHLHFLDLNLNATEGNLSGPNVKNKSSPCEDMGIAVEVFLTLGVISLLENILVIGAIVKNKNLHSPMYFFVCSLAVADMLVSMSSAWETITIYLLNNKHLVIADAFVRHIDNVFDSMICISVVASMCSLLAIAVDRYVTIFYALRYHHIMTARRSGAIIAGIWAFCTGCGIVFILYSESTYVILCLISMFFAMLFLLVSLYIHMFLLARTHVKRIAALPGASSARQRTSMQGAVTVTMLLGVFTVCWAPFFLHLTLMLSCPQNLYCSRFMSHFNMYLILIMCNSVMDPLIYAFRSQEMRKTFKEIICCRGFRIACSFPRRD
Outline: (§1)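 Cloned human receptor membranes were coated onto FlashPlate wells and incubated with radioligand and compound (added from a 0.5 mM DMSO daughter plate) for 1 hour at room temperature in the dark. Scintillation counting gave percent inhibition, with DMSO defining total and reference ligand defining non-specific binding.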

[3] = target: T3, Human Melanocortin (MC3) (Homo sapiens, UniProt P41968); experiment: Radioligand binding, human melanocortin MC3 membranes, FlashPlate, [125I]-NDP-αMSH; conditions: compound at 10 μM, [125I]-NDP-αMSH
T3 construct: purchased Perkin Elmer Biosignal
T3 sequence (P41968 whole entry): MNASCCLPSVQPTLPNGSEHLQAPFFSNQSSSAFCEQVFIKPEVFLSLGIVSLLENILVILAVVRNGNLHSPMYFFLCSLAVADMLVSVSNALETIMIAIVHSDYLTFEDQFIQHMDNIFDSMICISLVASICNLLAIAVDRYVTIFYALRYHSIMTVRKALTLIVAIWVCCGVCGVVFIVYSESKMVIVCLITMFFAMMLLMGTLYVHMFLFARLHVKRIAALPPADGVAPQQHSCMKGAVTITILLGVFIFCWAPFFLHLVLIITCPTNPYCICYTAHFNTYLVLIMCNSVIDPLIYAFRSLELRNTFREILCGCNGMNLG
Outline: as §1

[4] = target: T4, Human δ-opioid (DOP) (Homo sapiens, UniProt P41143); experiment: Radioligand binding, human δ-opioid (DOP) membranes, FlashPlate, [3H]-Bremazocine; conditions: compound at 10 μM; [3H]-Bremazocine
T4 construct: purchased Perkin Elmer Biosignal
T4 sequence (P41143 whole entry): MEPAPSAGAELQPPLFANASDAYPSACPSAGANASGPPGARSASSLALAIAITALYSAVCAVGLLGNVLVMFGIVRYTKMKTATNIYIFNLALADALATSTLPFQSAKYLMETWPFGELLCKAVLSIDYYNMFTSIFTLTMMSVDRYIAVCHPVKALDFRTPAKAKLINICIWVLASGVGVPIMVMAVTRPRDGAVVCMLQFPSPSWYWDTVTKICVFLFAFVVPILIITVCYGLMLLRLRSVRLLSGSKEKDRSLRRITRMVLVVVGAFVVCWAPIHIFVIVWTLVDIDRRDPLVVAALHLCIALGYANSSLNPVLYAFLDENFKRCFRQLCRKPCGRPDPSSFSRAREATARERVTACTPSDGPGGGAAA
Outline: as §1

[5] = target: T5, Human neuropeptide Y (NPY-Y1) (Homo sapiens, UniProt P25929); experiment: Radioligand binding, human neuropeptide Y NPY-Y1 membranes, FlashPlate, [125I]-PYY; conditions: compound at 10 μM; [125I]-PYY
T5 construct: purchased Perkin Elmer Biosignal
T5 sequence (P25929 1-384): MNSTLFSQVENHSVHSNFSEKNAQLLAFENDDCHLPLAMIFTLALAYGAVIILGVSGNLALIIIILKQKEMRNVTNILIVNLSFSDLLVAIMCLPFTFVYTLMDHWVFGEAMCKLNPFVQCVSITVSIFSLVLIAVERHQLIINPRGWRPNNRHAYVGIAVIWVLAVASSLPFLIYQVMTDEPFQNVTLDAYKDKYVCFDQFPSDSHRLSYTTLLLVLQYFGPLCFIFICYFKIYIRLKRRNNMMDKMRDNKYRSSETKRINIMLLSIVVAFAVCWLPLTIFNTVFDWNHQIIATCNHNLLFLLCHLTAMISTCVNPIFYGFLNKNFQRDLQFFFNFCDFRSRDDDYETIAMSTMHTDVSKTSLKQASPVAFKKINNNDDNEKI
Outline: as §1

[6] = target: T6, Human κ-Opioid (KOP) (Homo sapiens, UniProt P41145); experiment: Radioligand binding, human κ-opioid (KOP) membranes, filtration, [3H]-Diprenorphine; conditions: compound at 10 μM; [3H]-Diprenorphine
T6 construct: purchased Perkin Elmer Biosignal
T6 sequence (P41145 whole entry): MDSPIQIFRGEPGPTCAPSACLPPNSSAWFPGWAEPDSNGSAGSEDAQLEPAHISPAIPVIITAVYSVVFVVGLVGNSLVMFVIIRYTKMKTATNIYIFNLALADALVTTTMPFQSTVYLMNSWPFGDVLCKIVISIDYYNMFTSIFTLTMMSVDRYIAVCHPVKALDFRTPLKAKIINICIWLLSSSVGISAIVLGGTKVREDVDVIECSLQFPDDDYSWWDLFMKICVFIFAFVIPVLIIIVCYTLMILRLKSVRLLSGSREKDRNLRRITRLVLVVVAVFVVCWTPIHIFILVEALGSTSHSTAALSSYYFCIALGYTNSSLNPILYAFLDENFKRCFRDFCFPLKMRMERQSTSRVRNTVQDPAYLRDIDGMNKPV
Outline: (§2)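 Percent inhibition of radioligand binding measured on recombinant human membranes: NK1 with [125I]-Substance P, KOP with [3H]-Diprenorphine. Incubation 1 h at room temperature, then harvest onto 0.3% PEI-soaked filters, cold Tris-HCl pH 7.4 washes and scintillation counting; non-specific binding from reference ligand wells.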

[7] = target: T7, Human neurokinin (NK1) (Homo sapiens, UniProt P25103); experiment: Radioligand binding, human neurokinin NK1 membranes, filtration, [125I]-Substance P; conditions: compound at 10 μM; [125I]-Substance P
T7 construct: purchased Perkin Elmer Biosignal
T7 sequence (P25103 whole entry): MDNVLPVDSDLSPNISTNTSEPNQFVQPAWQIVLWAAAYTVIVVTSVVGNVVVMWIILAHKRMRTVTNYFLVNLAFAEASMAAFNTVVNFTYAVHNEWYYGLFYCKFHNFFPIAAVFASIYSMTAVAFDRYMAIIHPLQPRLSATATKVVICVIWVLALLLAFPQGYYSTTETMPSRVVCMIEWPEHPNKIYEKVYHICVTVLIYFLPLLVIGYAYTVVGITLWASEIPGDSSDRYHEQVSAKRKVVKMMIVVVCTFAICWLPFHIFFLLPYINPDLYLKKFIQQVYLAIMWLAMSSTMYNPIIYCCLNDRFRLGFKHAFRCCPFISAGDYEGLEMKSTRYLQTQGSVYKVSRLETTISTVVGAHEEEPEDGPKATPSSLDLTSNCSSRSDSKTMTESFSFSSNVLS
Outline: as §2

[8] = target: T8, Human Melanocortin (MC4) (Homo sapiens, UniProt P32245); experiment: Radioligand binding, human melanocortin MC4 membranes, FlashPlate, [125I]-NDP-αMSH; conditions: compound at 10 μM, [125I]-NDP-αMSH
T8 construct: purchased Perkin Elmer Biosignal
T8 sequence (P32245 whole entry): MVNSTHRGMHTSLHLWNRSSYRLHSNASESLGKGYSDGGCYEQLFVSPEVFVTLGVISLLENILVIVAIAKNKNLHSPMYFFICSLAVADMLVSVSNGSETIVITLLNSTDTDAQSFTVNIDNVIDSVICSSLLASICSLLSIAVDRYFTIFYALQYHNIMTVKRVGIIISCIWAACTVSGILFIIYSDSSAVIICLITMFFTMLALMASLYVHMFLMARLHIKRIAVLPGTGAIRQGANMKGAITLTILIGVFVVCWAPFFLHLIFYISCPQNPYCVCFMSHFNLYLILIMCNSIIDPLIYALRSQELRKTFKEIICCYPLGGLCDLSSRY
Outline: as §1

[9] = target: T9, Human opioid (ORL1) (Homo sapiens, UniProt P41146); experiment: Radioligand binding, human opioid ORL1 membranes, FlashPlate, [125I]-Nociceptin; conditions: compound at 10 μM; [125I]-Nociceptin
T9 construct: purchased Perkin Elmer Biosignal
T9 sequence (P41146 whole entry): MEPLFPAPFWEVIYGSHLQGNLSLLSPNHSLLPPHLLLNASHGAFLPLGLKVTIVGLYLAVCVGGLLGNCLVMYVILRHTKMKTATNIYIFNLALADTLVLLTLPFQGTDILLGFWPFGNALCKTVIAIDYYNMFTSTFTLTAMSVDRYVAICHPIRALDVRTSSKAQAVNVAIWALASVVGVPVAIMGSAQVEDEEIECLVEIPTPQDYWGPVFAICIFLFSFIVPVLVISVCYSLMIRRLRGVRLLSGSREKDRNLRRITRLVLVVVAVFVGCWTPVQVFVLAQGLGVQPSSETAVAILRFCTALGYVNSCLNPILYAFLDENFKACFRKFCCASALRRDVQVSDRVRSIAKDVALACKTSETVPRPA
Outline: as §1

[10] = target: T10, Human μ-opioid (MOP) (Homo sapiens, UniProt P35372); experiment: Radioligand binding, human μ-opioid (MOP) membranes, FlashPlate, [3H]-Naloxone; conditions: compound at 10 μM; [3H]-Naloxone
T10 construct: purchased Perkin Elmer Biosignal
T10 sequence (P35372 whole entry): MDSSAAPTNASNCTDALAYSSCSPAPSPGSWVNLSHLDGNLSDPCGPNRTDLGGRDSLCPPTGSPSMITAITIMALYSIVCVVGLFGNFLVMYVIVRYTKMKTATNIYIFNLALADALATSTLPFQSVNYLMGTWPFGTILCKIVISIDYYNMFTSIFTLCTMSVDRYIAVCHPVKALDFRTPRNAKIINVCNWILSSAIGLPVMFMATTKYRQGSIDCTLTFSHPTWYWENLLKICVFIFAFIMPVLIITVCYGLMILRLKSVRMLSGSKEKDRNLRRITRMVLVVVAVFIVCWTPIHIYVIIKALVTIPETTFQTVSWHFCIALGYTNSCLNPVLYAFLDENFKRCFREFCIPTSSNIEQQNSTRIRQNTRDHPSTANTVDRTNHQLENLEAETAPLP
Outline: as §1

[11] = target: T11, Human melanin-concentrating hormone (MCH1) (Homo sapiens, UniProt Q99705); experiment: Radioligand binding, human melanin-concentrating hormone MCH1 membranes, FlashPlate, [125I]-S36057; conditions: compound at 10 μM, [125I]-S36057
T11 construct: purchased Perkin Elmer Biosignal
T11 sequence (Q99705 whole entry): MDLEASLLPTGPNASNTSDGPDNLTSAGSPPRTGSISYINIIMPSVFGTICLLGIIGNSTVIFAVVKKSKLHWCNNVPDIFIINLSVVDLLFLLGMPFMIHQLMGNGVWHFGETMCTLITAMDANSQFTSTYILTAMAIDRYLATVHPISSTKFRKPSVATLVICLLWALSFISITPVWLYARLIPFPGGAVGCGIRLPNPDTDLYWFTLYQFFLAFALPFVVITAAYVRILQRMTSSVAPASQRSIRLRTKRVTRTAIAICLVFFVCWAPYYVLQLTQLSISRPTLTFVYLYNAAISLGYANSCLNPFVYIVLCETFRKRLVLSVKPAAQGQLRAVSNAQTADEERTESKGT
Outline: as §1

Compound | A11 radioligand binding, percentage inhibition [1] | A5 radioligand binding, percentage inhibition [2] | A3 radioligand binding, percentage inhibition [3] | A1 radioligand binding, percentage inhibition [4] | A9 radioligand binding, percentage inhibition [5] | A2 radioligand binding, percentage inhibition [6] | A8 radioligand binding, percentage inhibition [7] | A4 radioligand binding, percentage inhibition [8] | A10 radioligand binding, percentage inhibition [9] | A7 radioligand binding, percentage inhibition [10] | A6 radioligand binding, percentage inhibition [11] | further results
N=C(N)NCC(=O)N[C@H]1C(OCc2ccc(Cl)cc2)O[C@H](COCc2ccccc2)[C@@H](O)[C@@H]1OCc1ccc(-c2ccccc2)cc1 (stereo partly shown) [compound 518] |  |  |  |  |  |  |  |  |  |  |  | A11: inhibition of radioligand binding, mouse urotensin (mUR2) [1]: − (“−” indicates less than 50% inhibition at 10 μM); A5: inhibition of radioligand binding, human melanocortin (MC5) ([2]; 10 µM): − (“−” indicates less than 50% inhibition at 10 μM); A3: inhibition of radioligand binding, human melanocortin (MC3) ([3]; 10 µM): − (“−” indicates less than 50% inhibition at 10 μM); A1: inhibition of radioligand binding, human δ-opioid (DOP) [4]: − (“−” indicates less than 50% inhibition at 10 μM); A9: inhibition of radioligand binding, human neuropeptide Y (NPY-Y1) [5]: − (“−” indicates less than 50% inhibition at 10 μM); A2: inhibition of radioligand binding, human κ-opioid (KOP) [6]: − (“−” indicates less than 50% inhibition at 10 μM); A8: inhibition of radioligand binding, human neurokinin (NK1) [7]: + (“+” indicates greater than 50% inhibition at 10 μM); A4: inhibition of radioligand binding, human melanocortin (MC4) ([8]; 10 µM): − (“−” indicates less than 50% inhibition at 10 μM); A10: inhibition of radioligand binding, human opioid (ORL1) [9]: − (“−” indicates less than 50% inhibition at 10 μM); A7: inhibition of radioligand binding, human μ-opioid (MOP) [10]: − (“−” indicates less than 50% inhibition at 10 μM); A6: inhibition of radioligand binding, human melanin-concentrating hormone (MCH1) ([11]; 10 µM): − (“−” indicates less than 50% inhibition at 10 μM)
CO[C@H]1[C@H](O)[C@@H](COCc2ccc3ccccc3c2)OC(OCCc2ccccc2)[C@@H]1NC(=O)CCCN (stereo partly shown) [compound 115] | − (“−” indicates less than 50% inhibition at 10 μM) | − (“−” indicates less than 50% inhibition at 10 μM) | − (“−” indicates less than 50% inhibition at 10 μM) | − (“−” indicates less than 50% inhibition at 10 μM) | − (“−” indicates less than 50% inhibition at 10 μM) | − (“−” indicates less than 50% inhibition at 10 μM) | + (“+” indicates greater than 50% inhibition at 10 μM) | − (“−” indicates less than 50% inhibition at 10 μM) | − (“−” indicates less than 50% inhibition at 10 μM) | − (“−” indicates less than 50% inhibition at 10 μM) | − (“−” indicates less than 50% inhibition at 10 μM) | 
CO[C@H]1[C@H](O)[C@@H](COCc2ccc3ccccc3c2)OC(OCCc2ccccc2)[C@@H]1NC(=O)CCCNC(=N)N (stereo partly shown) [compound 116] | − (“−” indicates less than 50% inhibition at 10 μM) | + (“+” indicates greater than 50% inhibition at 10 μM) | − (“−” indicates less than 50% inhibition at 10 μM) | − (“−” indicates less than 50% inhibition at 10 μM) | − (“−” indicates less than 50% inhibition at 10 μM) | − (“−” indicates less than 50% inhibition at 10 μM) | + (“+” indicates greater than 50% inhibition at 10 μM) | − (“−” indicates less than 50% inhibition at 10 μM) | − (“−” indicates less than 50% inhibition at 10 μM) | − (“−” indicates less than 50% inhibition at 10 μM) | − (“−” indicates less than 50% inhibition at 10 μM) | 
CO[C@H]1[C@H](O)[C@@H](COCc2ccc(-c3ccccc3)cc2)OC(OCc2cccc(O)c2)[C@@H]1NC(=O)CCNC(=N)N (stereo partly shown) [compound 163] | − (“−” indicates less than 50% inhibition at 10 μM) | + (“+” indicates greater than 50% inhibition at 10 μM) | + (“+” indicates greater than 50% inhibition at 10 μM) | − (“−” indicates less than 50% inhibition at 10 μM) | − (“−” indicates less than 50% inhibition at 10 μM) | − (“−” indicates less than 50% inhibition at 10 μM) | + (“+” indicates greater than 50% inhibition at 10 μM) | + (“+” indicates greater than 50% inhibition at 10 μM) | − (“−” indicates less than 50% inhibition at 10 μM) | − (“−” indicates less than 50% inhibition at 10 μM) | − (“−” indicates less than 50% inhibition at 10 μM) | 
CO[C@H]1[C@H](O)[C@@H](COCc2cccc(O)c2)OC(OCc2ccc(Cl)cc2)[C@@H]1NC(=O)CCCN (stereo partly shown) [compound 156] | − (“−” indicates less than 50% inhibition at 10 μM) | + (“+” indicates greater than 50% inhibition at 10 μM) | − (“−” indicates less than 50% inhibition at 10 μM) | − (“−” indicates less than 50% inhibition at 10 μM) | − (“−” indicates less than 50% inhibition at 10 μM) | − (“−” indicates less than 50% inhibition at 10 μM) | + (“+” indicates greater than 50% inhibition at 10 μM) | − (“−” indicates less than 50% inhibition at 10 μM) | − (“−” indicates less than 50% inhibition at 10 μM) | − (“−” indicates less than 50% inhibition at 10 μM) | − (“−” indicates less than 50% inhibition at 10 μM) | 
